In publication PMC10279527, “Structural basis of metabolite transport by the chloroplast outer envelope channel OEP21” (Nature Structural & Molecular Biology, 2023):
Where “and” joins values, the source holds several entries; their conditions need not be identical. Equal values may be shown once.

Experiments:
OEP21 wt [1] = target: T1, OEP21 wt (Pisum sativum, UniProt Q9SM57); experiment: NMR titrations (2D-[15N,1H]-TROSY) of OEP21 with metabolites; type: binding, garden pea
T1 construct: made in house

OEP21 wt [2] = target: T1, OEP21 wt; experiment: FP competition with preformed MANT-ATP/OEP21-WT complex; type: binding, garden pea
Description: FP assays were performed on a spectrofluorometer FP-8300 (Jasco) equipped with a water bath cooling system MCM-100 (Jasco). […] A buffer containing no EDTA was used when MgCl2 was present. […] KD values were derived by fitting the data to a one-site binding model. […] All FP experiments were performed as triplicates.

OEP21 wt [3] = target: T1, OEP21 wt; experiment: SEC metabolite translocation assay with OEP21 WT proteoliposomes;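 for all read-outs here: control is liposomes reconstituted without protein, prepared alongside. Molecule content inside liposomes measured after Triton X-100 disruption. PD10 SEC runs done with or without ATP and/or MgCl2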; type: biochemical, garden pea; conditions: for Relative content (% of mean Control): Fig. 4f, WT proteoliposomes, molecules of increasing molecular weight

## O=C[C@H](O)COP(=O)(O)O [GAP, D-glyceraldehyde-3-phosphate]
OEP21 wt [1]; KD GAP - Loop5, Loop5, individual KDs
  Kd: 2700 µM and 4360 µM and 2480 µM
OEP21 wt [1]; KD GAP - Loop5, Mean, Loop5, mean
  Kd: 3180 µM
OEP21 wt [1]; KD, NMR, Fig. 3b
  Kd: ~150 µM
OEP21 wt [1]; KDs GAP+Mg, Mean, with Mg, mean
  Kd: 709 µM
OEP21 wt [1]; KDs GAP+Mg, with Mg, individual KDs
  Kd: 310 µM and 690 µM and 450 µM and 960 µM and 920 µM and 1170 µM and 470 µM and 980 µM and 750 µM and 710 µM and 670 µM
OEP21 wt [1]; KDs OEP21wt + GAP, Mean, OEP21wt, mean, unit inferred
  Kd: 152 µM
OEP21 wt [1]; KDs OEP21wt + GAP, OEP21wt, individual KDs, unit inferred
  Kd: 154 µM and 180 µM and 186 µM and 146 µM and 177 µM and 143 µM and 138 µM and 137 µM and 127 µM and 149 µM
OEP21 wt [1]; NMR, Fig. 3h, addition of Mg^2+
  effect of Mg^2+ on binding affinity (in words): decreased the binding affinity to a similar extent
OEP21 wt [1]; affinity of residues in L5, NMR, Fig. 3h
  Kd: ~3000 µM
OEP21 wt [1]; individual determinations KD1-KD12, relative to ATP pH7
  fold increase in Kd: 18.8725 and 22.0588 and 22.7941 and 17.8922 and 21.6912 and 17.5245 and 16.9118 and 16.7892 and 15.5637 and 18.2598
OEP21 wt [1]; mean, relative to ATP pH7
  fold increase in Kd, mean values: 18.7
OEP21 wt [2]; IC50 (dissociation of MANT-ATP), OEP21-WT, 1 µM MANT-ATP, 1 µM protein
  IC50: ~10000 µM
OEP21 wt [2]; IC50, wt, individual determinations
  IC50: 11000 µM and 10700 µM
OEP21 wt [2]; mean IC50, wt
  IC50: 10900 µM
OEP21 wt [3]; ED Fig. 10a, WT 0.05uM, Mean
  Relative GAP content (% of mean Control): 95.6446 % of mean Control
OEP21 wt [3]; ED Fig. 10a, WT 0.5uM, Mean
  Relative GAP content (% of mean Control): 62.4352 % of mean Control
OEP21 wt [3]; ED Fig. 10a, WT 5uM, Mean
  Relative GAP content (% of mean Control): 38.701 % of mean Control
OEP21 wt [3]; ED Fig. 10b, +ATP (2 mM per legend), OEP21 0.05uM, Mean
  Relative GAP content (% of mean Control): 91.3817 % of mean Control
OEP21 wt [3]; ED Fig. 10b, +ATP (2 mM per legend), OEP21 0.5uM, Mean
  Relative GAP content (% of mean Control): 64.3295 % of mean Control
OEP21 wt [3]; ED Fig. 10b, +ATP (2 mM per legend), OEP21 5uM, Mean
  Relative GAP content (% of mean Control): 54.5372 % of mean Control
OEP21 wt [3]; ED Fig. 10c, WT, 0.05M NaCl, Mean
  Relative GAP content (% of mean Control): 38.1976 % of mean Control
OEP21 wt [3]; ED Fig. 10c, WT, 1M NaCl, Mean
  Relative GAP content (% of mean Control): 59.8192 % of mean Control
OEP21 wt [3]; ED Fig. 10c, WT, […] NaCl, Mean
  Relative GAP content (% of mean Control): 46.186 % of mean Control
OEP21 wt [3]; Mean
  Relative content (% of mean Control): 48.3557 % of mean Control
OEP21 wt [3]; single replicates
  Relative content (% of mean Control): 46.601 % of mean Control and 48.0754 % of mean Control and 50.3906 % of mean Control
OEP21 wt [3]; Fig. 4d, WT, 5mM ATP, Mean
  Relative GAP content (% of mean Control): 40.9262 % of mean Control
OEP21 wt [3]; Fig. 4d, WT, 10mM MgCl2+5mM ATP, Mean
  Relative GAP content (% of mean Control): 54.2808 % of mean Control
OEP21 wt [3]; Fig. 4d, WT, 10mM MgCl2, Mean
  Relative GAP content (% of mean Control): 63.8331 % of mean Control
OEP21 wt [3]; proteoliposomes, SEC, deadtime ~4 min
  passage through the OEP21 channel (in words): passed through the channel
